Results: paper PMC7463714, “Design and Synthesis of Novel Hybrid 8-Hydroxy Quinoline-Indole Derivatives as Inhibitors of Aβ Self-Aggregation and Metal Chelation-Induced Aβ Aggregation” (Molecules, 2020)
Entries after “also recorded” stand apart in the source; their conditions may differ.

Assays:
SY5Y-APPSw cells = experiment: Protein aggregation in SY5Y-APPSw cells (ThT staining); format: cell-based; conditions: 1 µM, 48 h, 37 °C; compared to clioquinol (1)
Description: In another study compounds 7a–7d, 18c–18f, and 18h were also evaluated for their ability to reduce protein aggregation in SY5Y-APPSw cells. SY5Y-APPSw cells were exposed to the above protein aggregation inhibitors and parent compound 1 at 1 µM for 48 h at 37 °C. Cells were assessed for amyloid deposits by staining with 0.1% w/v ThT, counterstaining nuclei with DAPI, and mean ThT fluorescence signal per nucleus calculated over multiple fields. All the analogs reduced fluorescence intensity (indicative of protein aggregation) by 22–67% (P < 0.001 by 2-tailed t-test). […] Thioflavin-T fluorescence assays for in vitro amyloid aggregation and cell culture models of amyloid aggregation overlap but are not identical. This is due to the fact that thioflavin in cell-culture stains not just amyloid aggregates but also other amyloid-like fibrillar structures. Another important difference is that in vitro aggregation is assessed after 24 h, whereas aggregation in cell culture is assessed after 48 h.
(§1) Human Embryonic Kidney cells that overexpress tau protein (HEK-tau) cells or SY5Y neuroblastoma cells that express a familial-AD mutant of amyloid precursor protein (SY5Y-APPSw cells) were each seeded in 96-well plates at 8000 cells per well. After 24 h, cells were supplemented with test compound at 1 µM after diluting with medium. Vehicle only control was also included for each experiment. The cells were cultured for an additional 48 h at 37 °C. Both the cell lines were able to reach approximately 80% confluency in 48 h. Cells were assessed for amyloid deposits by staining with 0.1% w/v ThT, counterstaining nuclei with DAPI, and calculating mean ThT fluorescence signal per nucleus over multiple fields.

[1] = Metal-chelation study by UV-vis spectroscopy and Job's method; format: physicochemical; conditions: compound 50 µM, HEPES buffer pH 7.4, 30 min, shift from 252 nm
Description: Furthermore, the stoichiometry of formation of metal complexes 18f-Cu^2+ and 18f-Zn^2+ was also determined by using Job’s method (Figure 6). The […] shown in Figure 6A,B at 0.6 and 0.5 imply a stoichiometry of 1.5:1 for 18f-Cu^2+ and 1:1 for 18f-Zn^2+.
The chelating studies were performed with a UV–vis spectrophotometer. The absorption spectra of test compound (50 μM, final concentration) alone or in the presence of CuSO4, FeSO4, or ZnCl2 (50 μM, final concentration) in buffer (20 mM HEPES, 150 mM NaCl, pH 7.4) were incubated for 30 min and then recorded at room temperature, respectively. For the stoichiometry of the test compound–Cu^2+ complex or the test compound–Zn^2+ complex, a fixed amount of test compound (50 μM) was mixed with increasing amounts of copper ion or Zn ion (0–100 μM), and the UV–vis difference spectra were analyzed to determine the ratio of ligand/metal ion in the complex.

Aβ1–42 = target: T1, Aβ1–42 (Homo sapiens, UniProt P05067); experiment: Self-induced Aβ1–42 aggregation, thioflavin T (ThT) fluorescence assay; format: biochemical
T1 construct: Aβ1–42 (Adooq Bioscience, CA, USA); purchased Adooq Bioscience
T1 sequence (P05067 672-713 limits assumed): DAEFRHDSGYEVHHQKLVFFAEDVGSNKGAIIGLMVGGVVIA
Description: The novel hybrid 8-hydroxyquinoline-indole derivatives, 7a–7e, 12a, 12b, and the (8-hydroxyquinolin-2-yl)methyl-4-(1H-indole-2-carbonyl)piperazine-1-carboxylate analogs 18a–18h were evaluated for inhibitory activity against self-induced Aβ1–42 aggregation at five different concentrations (0.3, 1.0, 3, 9 and 27 µM) with 25 µM Aβ1–42, utilizing a thioflavin T (ThT) fluorescence assay with clioquinol, 1 as a positive control (Figure 3). In the absence of inhibitor, the self-induced Aβ1–42 aggregation ThT fluorescence was recorded as 115 arbitrary units (a.u.). The self-induced Aβ1–42 aggregation results for all the above synthetic analogs from the ThT fluorescence assay are shown in Table 1. […] The thioflavin T (ThT)-fluorescence assay was used to measure the inhibition of Aβ aggregation. Aβ1–42 (Adooq Bioscience, CA, USA) was pretreated with 1 mL of hexafluoroisopropanol (HFIP) to afford a stock solution, which was aliquoted into small samples. The solvent was evaporated at room temperature, and samples were stored at −80 °C. For Aβ1–42 aggregation inhibition experiments, phosphate buffer (pH 7.4) was added to the Aβ stock solution to afford a 50 µM concentration before use. A mixture of the Aβ1–42 peptide (10 µL, 25 µM final concentration) with or without the test compound (10 µL; 0.3, 1.0, 3, 9, and 27 µM) was incubated at 37 °C for 48 h. Blanks using phosphate buffer (pH 7.4) instead of Aβ, with or without test compound, were also assessed. Then 50 mM glycine-NaOH buffer (pH 8.0) containing ThT (5 µM) was added to 20 µL of the sample to afford a final volume of 200 µL. The fluorescence intensities were recorded (excitation, 450 nm; emission, 485 nm). The fluorescence intensities were background corrected to the no enzyme control and 100% of intensity reflected no inhibition of aggregation. To obtain the normalized amyloid aggregation inhibition relative to the control group, the amyloid aggregation/cell values were further divided by the total amyloid fluorescence of the control group. Using GraphPad Prism, the amyloid aggregation values (relative to control group) were entered along the corresponding concentrations for the triplicates and then a log transformation was obtained. Using the dose–response simulation module in GraphPad Prism, nonlinear regression fit (curve) was then generated for each small molecule with various concentrations used. Curves were then compared to determine if they were statistically different, by performing the best-fit values of selected unshared parameters between data sets and extra sum-of-squares F test, allowing for selection of the simpler model unless the P value was less than 0.05. The logEC50 output parameter was then selected to obtain the EC50 for each of the dose–response curves for the small molecules.

HEK-tau cells = experiment: Protein aggregation in HEK-tau cells (ThT staining); format: cell-based, Human; conditions: 1 µM, 48 h, 37 °C; compared to clioquinol (1)
Description: In our study, we have shown that restoring metal homeostasis by treatment with hybrid 8-hydroxyquinoline-indole analogs reduces tau- and amyloid-mediated protein aggregation, and their associated neurotoxicity. Analogs 7a–7d, 18c–18f, and 18h were evaluated for their ability to reduce protein aggregation in HEK-tau cells. HEK-tau cells were exposed to the above Aβ1–42 aggregation inhibitors and parent drug clioquinol (1) at 1 µM for 48 h at 37 °C. Cells were assessed for amyloid deposits by staining with 0.1% w/v thioflavin T, counterstaining nuclei with DAPI, and mean ThT fluorescence signal per nucleus was calculated over multiple fields. All the analogs reduced fluorescence intensity (indicative of protein aggregation) by 26–62% (P < 0.001 by 2-tailed t-test).
as §1

maximum absorption wavelength in the presence of Cu^2+ ([1]; CuSO4 50 µM): 274 nm
maximum absorption wavelength in the presence of Fe^2+ ([1]; FeSO4 50 µM): 255 nm
maximum absorption wavelength in the presence of Zn^2+ ([1]; ZnCl2 50 µM): 269 nm
EC50 (Aβ1–42; 25 µM Aβ1–42, compound 0.3-27 µM, 37 °C, 48 h, ThT fluorescence, read-out: EC50 against self-induced Aβ1–42 aggregation): 1080 nM
improvement in inhibitory potency over clioquinol (1), Aβ1–42 self-aggregation (Aβ1–42; relative to 1): 10 fold
SMILES: COc1ccc2[nH]c(C(=O)N3CCN(C(=O)OCc4ccc5c(Cl)cc(Cl)c(O)c5n4)CC3)cc2c1 [Compound 18f, (5,7-Dichloro-8-hydroxyquinolin-2-yl)methyl-4-(5-methoxy-1H-indole-2-carbonyl)piperazine-1-carboxylate]
protein aggregation inhibition in SY5Y-APPSw cells, result in words (SY5Y-APPSw cells): effective in reducing protein aggregation
protein aggregation inhibition in HEK-tau cells, result in words (HEK-tau cells): most effective; also recorded: effective in reducing protein aggregation
